Measurements from US20240058264A1, “PHARMACEUTICAL FORMULATIONS OF NINTEDANIB FOR INTRAOCULAR USE” (Boehringer Ingelheim International GmbH, priority 2022, published 2024).
≈ marks a conversion by molar mass, not a printed value.

Assay: Water solubility
Assay type: physicochemical

solubility in water | solubility | SMILES
very poor |  | COC(=O)c1ccc2c(c1)NC(=O)/C2=C(\Nc1ccc(N(C)C(=O)CN2CCN(C)CC2)cc1)c1ccccc1 [free base of nintedanib, 3-Z-[1-(4-(N-((4-methyl-piperazin-1-yl)-methylcarbonyl)-N-methyl-amino)-anilino)-1-phenyl-methylene]-6-methoxycarbonyl-2-indolinone]
 | 2800 µg/mL (≈ 5.19 mM) | COC(=O)c1ccc2c(c1)NC(=O)/C2=C(\Nc1ccc(N(C)C(=O)CN2CCN(C)CC2)cc1)c1ccccc1 [nintedanib esylate]
